{"source": "patent EP0241837B1", "about": "“Stable injectable antiemetic compositions” (Bristol-Myers Squibb Company, priority 1986, dated 1987)", "assay": "Stability of Compound Ia (5 mg/ml) in aqueous solutions on storage at 56°C", "type": "physicochemical", "settings": "for % Remaining (8 weeks): 80640 min; for remaining at 168 h: 1 week; for remaining at 336 h: 2 weeks", "method": "The compounds of Formula I in aqueous, isotonic (isotonicity adjusted with sodium chloride and/or dextrose) and buffered ([…], pH 5.7 and 6.5) formulations containing the equivalent of 5 mg of free base of a compound of Formula I per ml have been found unsuitable for long term shelf life. Typical isotonic and buffered formulations lost 33% and 40%, respectively, of their potency following storage for eight weeks at 56°C. […] Tables 1 and 2 give the results of stability tests on the compound of Formula Ia in water and in isotonic saline, and in citrate buffers, respectively.\nTables 3 and 4, below, provide stability data for some of the stable injectable formulations of the present invention.", "key": {"[1]": {"settings": "0.01m citrate buffer, pH 5.7, 5 mg/ml in 0.01M citrate buffer pH 5.7, 56°C, average of duplicate samples, read-out: % Remaining(a) (pH 5.7)"}, "[2]": {"settings": "0.01m citrate buffer, pH 6.5, 5 mg/ml in 0.01M citrate buffer pH 6.5, 56°C, average of duplicate samples, read-out: % Remaining(a) (pH 6.5)"}, "[3]": {"settings": "isotonic saline, 5mg/ml in isotonic saline, 56°C, average of duplicate samples, read-out: % Remaining(a) (Isotonic Saline)"}, "[4]": {"settings": "water, 5mg/ml in water, 56°C, average of duplicate samples, read-out: % Remaining(a) (Water)"}}, "note": "Where two headings read alike, the source gives them in different places."}
{"smiles": "CCN(CC)CCNC(=O)c1cc(Cl)c(N)cc1OC(C)C(C)=O", "note": "(stereo not shown) [Compound Ia, 4-amino-2-(2-butanon-3-yl)-oxy-5-chloro-N-[2-(diethylamino)ethyl]benzamide]", "values": [{"measurement": "% Remaining(a) (pH 5.7)", "setting": "5 mg/ml in 0.01M citrate buffer pH 5.7, 56°C, Initial, average of duplicate samples", "result": 100.0, "unit": "%"}, {"measurement": "% Remaining(a) (pH 6.5)", "setting": "5 mg/ml in 0.01M citrate buffer pH 6.5, 56°C, Initial, average of duplicate samples", "result": 100.0, "unit": "%"}, {"measurement": "% Remaining(a) (Isotonic Saline)", "setting": "5mg/ml in isotonic saline, 56°C, Initial, average of duplicate samples", "result": 100.0, "unit": "%"}, {"measurement": "% Remaining(a) (Water)", "setting": "5mg/ml in water, 56°C, Initial, average of duplicate samples", "result": 100.0, "unit": "%"}, {"measurement": "% Remaining (8 weeks)", "setting": "5mg/ml, Ethanol/Water (v/v) 0/100, calculated dielectric constant 78.5, 56°C, 8 weeks", "result": 89.4, "unit": "%"}, {"measurement": "% Remaining (8 weeks)", "setting": "5mg/ml, Ethanol/Water (v/v) 25/75, calculated dielectric constant 64.9, 56°C, 8 weeks", "result": 97.5, "unit": "%"}, {"measurement": "% Remaining (8 weeks)", "setting": "5mg/ml, Ethanol/Water (v/v) 50/50, calculated dielectric constant 51.4, 56°C, 8 weeks", "result": 99.1, "unit": "%"}, {"measurement": "remaining at 168 h", "setting": "[1]", "result": 94.8, "unit": "%"}, {"measurement": "remaining at 336 h", "setting": "[1]", "result": 87.8, "unit": "%"}, {"measurement": "remaining at 672 h", "setting": "0.01m citrate buffer, pH 5.7, 5 mg/ml in 0.01M citrate buffer pH 5.7, 56°C, 4 weeks, average of duplicate samples, read-out: % Remaining(a) (pH 5.7)", "result": 77.2, "unit": "%"}, {"measurement": "remaining at 1344 h", "setting": "0.01m citrate buffer, pH 5.7, 5 mg/ml in 0.01M citrate buffer pH 5.7, 56°C, 8 weeks, average of duplicate samples, read-out: % Remaining(a) (pH 5.7)", "result": 58.9, "unit": "%"}, {"measurement": "remaining at 168 h", "setting": "[2]", "result": 93.6, "unit": "%"}, {"measurement": "remaining at 336 h", "setting": "[2]", "result": 87.9, "unit": "%"}, {"measurement": "remaining at 672 h", "setting": "0.01m citrate buffer, pH 6.5, 5 mg/ml in 0.01M citrate buffer pH 6.5, 56°C, 4 weeks, average of duplicate samples, read-out: % Remaining(a) (pH 6.5)", "result": 77.5, "unit": "%"}, {"measurement": "remaining at 1344 h", "setting": "0.01m citrate buffer, pH 6.5, 5 mg/ml in 0.01M citrate buffer pH 6.5, 56°C, 8 weeks, average of duplicate samples, read-out: % Remaining(a) (pH 6.5)", "result": 60.3, "unit": "%"}, {"measurement": "remaining at 672 h", "setting": "5% (w/v) glycerol, 5mg/ml, solvent 5% (w/v) Glycerol, calculated dielectric constant 76.3, 56°C, 4 weeks, read-out: % Remaining (4 weeks)", "result": 95.1, "unit": "%"}, {"measurement": "remaining at 1344 h", "setting": "5% (w/v) glycerol, 5mg/ml, solvent 5% (w/v) Glycerol, calculated dielectric constant 76.3, 56°C, 8 weeks, read-out: %Remaining (8 weeks)", "result": 90.9, "unit": "%"}, {"measurement": "remaining at 672 h", "setting": "15% (w/v) glycerol, 5mg/ml, solvent 15% (w/v) Glycerol, calculated dielectric constant 71.8, 56°C, 4 weeks, read-out: % Remaining (4 weeks)", "result": 96.5, "unit": "%"}, {"measurement": "remaining at 1344 h", "setting": "15% (w/v) glycerol, 5mg/ml, solvent 15% (w/v) Glycerol, calculated dielectric constant 71.8, 56°C, 8 weeks, read-out: %Remaining (8 weeks)", "result": 94.2, "unit": "%"}, {"measurement": "remaining at 672 h", "setting": "25% (w/v) glycerol, 5mg/ml, solvent 25% (w/v) Glycerol, calculated dielectric constant 71.4, 56°C, 4 weeks, read-out: % Remaining (4 weeks)", "result": 96.8, "unit": "%"}, {"measurement": "remaining at 1344 h", "setting": "25% (w/v) glycerol, 5mg/ml, solvent 25% (w/v) Glycerol, calculated dielectric constant 71.4, 56°C, 8 weeks, read-out: %Remaining (8 weeks)", "result": 95.3, "unit": "%"}, {"measurement": "remaining at 672 h", "setting": "25% (w/v) propylene glycol, 5mg/ml, solvent 25% (w/v) Propylene Glycol, calculated dielectric constant 67.3, 56°C, 4 weeks, read-out: % Remaining (4 weeks)", "result": 97.7, "unit": "%"}, {"measurement": "remaining at 1344 h", "setting": "25% (w/v) propylene glycol, 5mg/ml, solvent 25% (w/v) Propylene Glycol, calculated dielectric constant 67.3, 56°C, 8 weeks, read-out: %Remaining (8 weeks)", "result": 96.8, "unit": "%"}, {"measurement": "remaining at 672 h", "setting": "ethanol/water 0/100, 5mg/ml, Ethanol/Water (v/v) 0/100, calculated dielectric constant 78.5, 56°C, 4 weeks, read-out: % Remaining (4 weeks)", "result": 94.9, "unit": "%"}, {"measurement": "remaining at 672 h", "setting": "ethanol/water 25/75, 5mg/ml, Ethanol/Water (v/v) 25/75, calculated dielectric constant 64.9, 56°C, 4 weeks, read-out: % Remaining (4 weeks)", "result": 98.7, "unit": "%"}, {"measurement": "remaining at 672 h", "setting": "ethanol/water 50/50, 5mg/ml, Ethanol/Water (v/v) 50/50, calculated dielectric constant 51.4, 56°C, 4 weeks, read-out: % Remaining (4 weeks)", "result": 99.5, "unit": "%"}, {"measurement": "remaining at 672 h", "setting": "ethanol/water 75/25, 5mg/ml, Ethanol/Water (v/v) 75/25, calculated dielectric constant 37.8, 56°C, 4 weeks, read-out: % Remaining (4 weeks)", "result": 99.6, "unit": "%"}, {"measurement": "remaining at 168 h", "setting": "[3]", "result": 96, "unit": "%"}, {"measurement": "remaining at 336 h", "setting": "[3]", "result": 91.6, "unit": "%"}, {"measurement": "remaining at 672 h", "setting": "isotonic saline, 5mg/ml in isotonic saline, 56°C, 4 weeks, average of duplicate samples, read-out: % Remaining(a) (Isotonic Saline)", "result": 83.5, "unit": "%"}, {"measurement": "remaining at 1344 h", "setting": "isotonic saline, 5mg/ml in isotonic saline, 56°C, 8 weeks, average of duplicate samples, read-out: % Remaining(a) (Isotonic Saline)", "result": 66.9, "unit": "%"}, {"measurement": "remaining at 168 h", "setting": "[4]", "result": 97.4, "unit": "%"}, {"measurement": "remaining at 336 h", "setting": "[4]", "result": 95.5, "unit": "%"}, {"measurement": "remaining at 672 h", "setting": "water, 5mg/ml in water, 56°C, 4 weeks, average of duplicate samples, read-out: % Remaining(a) (Water)", "result": 90.8, "unit": "%"}, {"measurement": "remaining at 1344 h", "setting": "water, 5mg/ml in water, 56°C, 8 weeks, average of duplicate samples, read-out: % Remaining(a) (Water)", "result": 80.5, "unit": "%"}, {"measurement": "remaining at 672 h", "setting": "water, 5mg/ml, solvent Water, calculated dielectric constant 78.5, 56°C, 4 weeks (Table 4), read-out: % Remaining (4 weeks)", "result": 94.9, "unit": "%"}, {"measurement": "remaining at 1344 h", "setting": "water, 5mg/ml, solvent Water, calculated dielectric constant 78.5, 56°C, 8 weeks (Table 4), read-out: %Remaining (8 weeks)", "result": 88.1, "unit": "%"}]}
